# Literature values, collected in US9446032B2, “Methods for treating cardiovascular disorders” (WOCKHARDT LIMITED, priority 2011, dated 2016).
# Tests used:
# [1] = incomplete owing to extensive first pass metabolism
SMILES,solubility in ethanol (ethanol),solubility in water (water),bioavailability [1],solubility (BCS)
CCOC(=O)C1=C(COCCN)NC(C)=C(C(=O)OC)C1c1ccccc1Cl (stereo not shown) [Amlodipine besylate],sparingly soluble,slightly soluble,–,–
COCCc1ccc(OCC(O)CNC(C)C)cc1 (stereo not shown) [Metoprolol],–,–,about 50%,highly soluble
